Broadly, the IC50 is the concentration that gives 50% inhibition.

In one experiment the target is T1, human CYP11B1 enzyme (Homo sapiens, UniProt P15538).
T1 construct: the ORF of human CYP11B1 or CYP11B2 were transfected into G402 cells; expressed in transfected cells
T1 sequence (P15538 25-503): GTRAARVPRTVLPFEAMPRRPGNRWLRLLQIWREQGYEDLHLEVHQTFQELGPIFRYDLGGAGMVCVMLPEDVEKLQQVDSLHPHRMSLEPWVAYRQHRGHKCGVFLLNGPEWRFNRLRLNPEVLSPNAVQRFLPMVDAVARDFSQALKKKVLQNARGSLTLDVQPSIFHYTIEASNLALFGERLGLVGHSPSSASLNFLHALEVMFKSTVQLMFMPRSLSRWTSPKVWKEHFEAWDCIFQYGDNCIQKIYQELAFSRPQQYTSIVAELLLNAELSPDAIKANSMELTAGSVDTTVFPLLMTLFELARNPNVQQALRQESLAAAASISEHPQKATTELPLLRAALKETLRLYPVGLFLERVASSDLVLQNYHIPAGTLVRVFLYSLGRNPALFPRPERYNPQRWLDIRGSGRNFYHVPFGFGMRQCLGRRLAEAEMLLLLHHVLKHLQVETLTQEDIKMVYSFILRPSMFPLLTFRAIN
Description: Enzyme inhibition activity assay in G402 cells stably expressing human CYP11B1 (cortisol production from 11-DC, LC/MS). It is filed as cell-based. Conditions: 1 µM 11-DC, 16 hours, cortisol detected. The essentials:
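G402 cells stably expressing human CYP11B2 or CYP11B1, preincubated 1 h with inhibitor in DMEM/F12 plus 2.5% charcoal-stripped FCS, then 16 h with 1 µM 11-DOC or 1 µM 11-DC. Aldosterone or cortisol quantified by LC/MS; IC50 from four-parameter logistic fit versus uninhibited control.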

A further experiment has as its system plasma hormone levels. Description: Pharmacodynamic determination in monkeys: plasma aldosterone and cortisol after ACTH stimulation. It is filed as in vivo, cynomolgus monkeys. Conditions: P.O. The protocol: Cynomolgus monkeys were used as test animals to evaluate the pharmacodynamics of multiple compounds of the present disclosure on plasma hormone levels following gavage administration (P.O.) at various doses such as 0.1 mpk (and others, e.g., 0.03 mpk, 0.1 mpk, and 0.3 mpk).
Male cynomolgus monkeys, Suzhou Xishan Zhongke Laboratory Animal Co., Ltd. Animal production license number: SCXK (Su) 2023-0001, animal use license number: SYXK (Su) 2020-0017.
Male cynomolgus monkeys were performed gavage administration (P.O.) at doses set as: 0 mpk (vehicle group, i.e., Veh group), 0.03 mpk, 0.1 mpk, and 0.3 mpk. In each group, 15 µg/kg ACTH was injected intramuscularly 1 hour after dosing. Continuous venous blood samples were collected from each group at 1 hour before administration and at multiple time points after administration. Blood samples were collected, and plasma aldosterone and its precursors, as well as plasma corticosterone and its precursors, at multiple time points were analyzed using LC/MS methods.
Venous blood samples were collected at 1-2 hours before gavage administration and at multiple time points after intramuscular injection of ACTH (adrenocorticotropic hormone). The samples were placed in EDTA-K2 tubes, centrifuged at 4 °C, 2600 g for 10 minutes to separate plasma, which was then stored at -80 °C.
• HPLC: Waters ACQUITY UPLC I-Class PLUS; • Mass spectrometry conditions: Triple Quad™ 7500 (Serial No. FA224362212) mass spectrometer; • Chromatographic column: phenomenex kinetex 2.6µm C8 100A 50 × 4.60 mm; • Mobile phase: mobile phase A was 0.5 mM ammonium fluoride solution containing 0.1% formic acid; mobile phase B was MeOH.
The data in Figs. 1, 2, 3, 4, and 5 are analyzed based on PD changes at 30 minutes after ACTH stimulation. The percentage of PD relative to the control group (Veh group) at 30 minutes after ACTH stimulation serves as the main basis for pharmacodynamic evaluation, calculated according to the following formula: [formula] where PD refers to aldosterone or cortisol. Table 8 Pharmacodynamic Evaluation of Example Compound C44 in Monkeys

Setting [1] is: 0.03 mpk, 30min after ACTH stimulation, plasma.
Where [2] appears, read: 0.1 mpk, 30min after ACTH stimulation, plasma.
Setting [3] is: 0.3 mpk, 30min after ACTH stimulation, plasma.

Structures are written as SMILES.

Turning to `CCC(=O)N[C@@H]1CCOc2c(-c3ccc4c(c3)CCC(=O)N4C)cncc21` [Compound A02-P2], half-maximal inhibition against human CYP11B1 enzyme (IC50) was put at 3680 nM. The Cortisol with plasma hormone levels (0.03 mpk, 0h, plasma) is 269.0 ng/mL; with plasma hormone levels (setting [1]) it was 384.0 ng/mL; with plasma hormone levels (0.1 mpk, 0h, plasma), 436.0 ng/mL; in the experiment with plasma hormone levels (setting [2]), 599.0 ng/mL; in the experiment on plasma hormone levels (0.3 mpk, 0h, plasma) it was 283.0 ng/mL; with plasma hormone levels (setting [3]), 387.0 ng/mL. Moreover, the Aldosterone amounted to 0.13 ng/mL with plasma hormone levels (0.03 mpk, 0h, plasma (Table 12)); 0.27 ng/mL in the experiment with plasma hormone levels (0.03 mpk, 30min after ACTH stimulation, plasma (Table 12)); 0.40 ng/mL in the experiment on plasma hormone levels (0.1 mpk, 0h, plasma (Table 12)); 0.20 ng/mL in the experiment on plasma hormone levels (0.1 mpk, 30min after ACTH stimulation, plasma (Table 12)); 0.13 ng/mL with plasma hormone levels (0.3 mpk (dose printed 03), 0h, plasma (Table 12)); 0.05 ng/mL with plasma hormone levels (0.3 mpk (dose printed 03), 30min after ACTH stimulation, plasma (Table 12)).

Consider `[2H]C([2H])([2H])OC(=O)N[C@@H]1CCOc2c(-c3cc(F)c4c(ccc(=O)n4C)c3)cncc21` [Compound A50], for which inhibition against human CYP11B1 enzyme was half-maximal at 2110 nM (IC50). The Aldosterone with plasma hormone levels (0.03 mpk, 0h, plasma) came out at 0.12 ng/mL; in the experiment with plasma hormone levels (setting [1]), 0.22 ng/mL; in the experiment on plasma hormone levels (0.1 mpk, 0h, plasma), 0.49 ng/mL; with plasma hormone levels (setting [2]), 0.12 ng/mL; in the experiment on plasma hormone levels (0.3 mpk, 0h, plasma), 0.12 ng/mL; in the experiment with plasma hormone levels (setting [3]), 0.06 ng/mL. In addition, the Cortisol with plasma hormone levels (0.03 mpk, 0h, plasma) came out at 358.3 ng/mL; in the experiment on plasma hormone levels (setting [1]) it was 430.0 ng/mL; in the experiment on plasma hormone levels (0.1 mpk, 0h, plasma), 282.0 ng/mL; in the experiment with plasma hormone levels (setting [2]) it was 386.0 ng/mL; in the experiment with plasma hormone levels (0.3 mpk, 0h, plasma) it was 304.7 ng/mL; in the experiment with plasma hormone levels (setting [3]), 369.7 ng/mL.

For the origin of these results see EP4806899A1, “FUSED RING DERIVATIVE, PREPARATION METHOD THEREFOR AND USE THEREOF IN MEDICINE” (Shanghai Qilu Pharmaceutical Research and Development …, priority 2023, dated 2025).
